Consider 81 compounds from PubChem BioAssay AID1189 (EPA DSSTox, 2008).

Calls of active or inactive are those of the source.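 Rule for the calls: active = a tumor-causing dose value with its tumor site reported for any sex and species group of a rodent or other animal cancer study; inconclusive = only studies judged inadequate by the national testing program; inactive = tested in at least one study, none positive.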 Peptide text beside a SMILES is read from it.

This series is described as follows: DSSTox (CPDBAS) Carcinogenic Potency Database Summary SingleCellCall Results. As to conditions: animal chronic carcinogenicity bioassays, CPDB summary call. The method in brief: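 Categorical carcinogenicity call compiled from published chronic rodent and other animal cancer bioassays; based on the most positive result across experiments for each sex-species, assigned on minimal evidence for or against activity.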
With `CCc1ccc(C(c2ccc(CC)cc2)C(Cl)Cl)cc1`, the outcome was inactive. Under `CC(N)=O` stands “active; inactive”; under `CCCCCN(N=O)C(N)=O`, “active”; under `CC(=O)Nc1nc(NC(C)=O)nc(-c2ccc([N+](=O)[O-])o2)n1`, “active”. For `C[C@]12C=CC(=O)C=C1CC[C@@H]1[C@@H]2C(=O)C[C@@]2(C)[C@H]1CC[C@]2(O)C(=O)CO` the value was “inactive”; for `O=[N+]([O-])c1ccc(-c2nc(N(CCO)CCO)c3ccccc3n2)s1`, “active; inactive”. Turning to `Nc1ccc(Cc2ccc(N)cc2)cc1`, the outcome was “active; inactive”. As to `O.O.O.O.O.O.O.O=S(=O)([O-])[O-].[Co+2]`, the outcome was active. Regarding `CC1CC(C)(C)CC(OOC(C)(C)C)(OOC(C)(C)C)C1` (stereo unspecified), the outcome was “inactive; active”.

Turning to `COc1cc(O)c2c(=O)c3c(OC)cc4c(c3oc2c1OC)C1C=COC1O4` (stereo unspecified), the outcome was active. For `Cc1cccc(C)c1NC1=NCCCS1` the value was “inactive”; for `Oc1ccc(Cl)cc1Cl`, “inactive”. Under `CCN(CC)C(=O)c1cccc(C)c1` stands “inactive”; under `Cc1cccc(N)c1`, “active; inactive”; under `Cc1ccc([N+](=O)[O-])cc1`, “active”. For `ClC1=C(Cl)C(Cl)(Cl)C(Cl)=C1Cl`, the outcome was “inactive; active”. For the compound `CN(N=O)c1ncnc2c1ncn2[C@@H]1O[C@H](CO)[C@@H](O)[C@H]1O`, the outcome was active. For `Oc1cc2c(cc1O)[C@H]1c3ccc(O)c(O)c3OC[C@@]1(O)C2` the value was “active”; for `NC(=O)N(CCF)N=O`, “active; inactive”; for `O=NN1CCN(N=O)CC1`, “active; inactive”. Under `CC(Cl)Cl` stands “inactive; active”; under `COC(=O)[C@H](Cc1ccccc1)NC(=O)[C@@H](N)CC(=O)O` (H-Asp-Phe-OMe), “inactive”. Under `Nc1ccc(Nc2ccccc2)cc1` stands “inactive”. Turning to `CC(C)CN(N=O)C(=N)N[N+](=O)[O-]`, the outcome was inactive. Consider `CCCN(CCC)S(=O)(=O)c1ccc(C(=O)O)cc1`, for which the outcome was active. Under `Oc1ccc2c(c1)OCO2` stands “active; inactive”; under `COc1cc2c(cc1N)oc1ccccc12`, “active”; under `Cl`, “inactive”. Under `CNC(=O)Oc1cccc2ccccc12` stands “active”. For the compound `CC(=O)C1C(=O)C=C(C)OC1=O` (stereo unspecified), the outcome was “inactive; active”. Under `O=C(O)c1ccccc1-c1c2cc(I)c(=O)c(I)c-2oc2c(I)c(O)c(I)cc12` stands “inactive”; under `Nc1ccc(-c2ccc(F)cc2)cc1`, “active”; under `CCC(CC)[N+](=O)[O-]`, “active”. For `CCCCCCCCCCCCCCCC(=O)OC/C=C(C)/C=C/C=C(C)/C=C/C1=C(C)CCCC1(C)C` the value was “inactive”; for `O=C1OC(O)C(C(Cl)Cl)=C1Cl` (stereo unspecified), “active”; for `CC(C)(C)NCC(O)c1ccc(O)c(CO)c1` (stereo unspecified), “active; inactive”. Under `O=NN1CC(=O)NC1=O` stands “active”. Regarding `CNC(=O)O/N=C(\SC)C(=O)N(C)C`, the outcome was inactive. Under `CC(C)OC(=O)COc1ccc(Cl)cc1Cl` stands “inactive”; under `CCc1cc(C(N)=S)ccn1`, “active; inactive”. For `CN(N=O)c1cccnc1`, the result was inactive. For `CN1[C@@H]2CC[C@H]1CC(OC(=O)C(CO)c1ccccc1)C2` (stereo partly specified) the value was “inactive; active”; for `COc1ccccc1N1CCN(CCCNc2cc(=O)n(C)c(=O)n2C)CC1`, “inactive”.

`C=C(C)C(=O)Nc1ccc(Cl)c(Cl)c1`: the outcome was inactive. For `OCCN(CCO)c1nc(-c2cccs2)nc2ccccc12` the value was “inactive”; for `CC(C)=NNc1ncc(-c2ccc([N+](=O)[O-])o2)s1`, “active; inactive”. Under `CC(=O)Nc1ccc(-c2ccccc2)cc1` stands “active”; under `Cc1cc(C)c(N)cc1C`, “active”. Under `CN(C)CCOC(C)(c1ccccc1)c1ccccn1` (stereo unspecified) stands “active; inactive”. With `N#CSCc1ccccc1`, the result was inactive. Under `O=C1C2(Cl)C3(Cl)C4(Cl)C(Cl)(Cl)C5(Cl)C3(Cl)C1(Cl)C5(Cl)C24Cl` (stereo unspecified) stands “active; inactive”; under `ClCC(Cl)CCl`, “active; inactive”. For `Clc1ccc(Cl)cc1` the value was “active”. Under `NC(=O)c1ccccc1C(N)=O` stands “inactive”; under `Nc1nc(N)c2nc(-c3ccccc3)c(N)nc2n1`, “active; inactive”. In the case of `CCCNN`, the result was active. For `O=C(O)c1cc(N=Nc2ccc(S(=O)(=O)Nc3ccccn3)cc2)ccc1O` the value was “active”; for `Cc1ncc([N+](=O)[O-])n1CCO`, “active”; for `O=P(=O)O`, “inactive”. Under `Cc1cccc(OCC(O)CNC(C)(C)C)c1C` (stereo unspecified) stands “inactive”; under `COC(=O)NN`, “inactive; active”.

With `O=NN1CC=CCO1`, the outcome was active. For `c1ccc2c(c1)Oc1ccccc1O2`, the outcome is “inactive; active”. Consider `OO`, for which the outcome is “active; inactive”. Under `ClC(Cl)C(Cl)Cl` stands “active”; under `CC(=O)N(C(C)=O)c1cccc2c1Cc1ccccc1-2`, “active”. Under `CCSCCC(N)C(=O)O` (stereo unspecified) stands “active”; under `COc1cc(NC(=O)C(N=Nc2ccc(-c3ccc(N=NC(C(C)=O)C(=O)Nc4cc(OC)c(Cl)cc4OC)c(Cl)c3)cc2Cl)C(C)=O)c(OC)cc1Cl` (stereo unspecified), “inactive”. For `OCl` the value was “inactive”; for `O=C([O-])c1cc(N=Nc2ccc(-c3ccc(N=Nc4c(O)ccc(N=Nc5cc(S(=O)(=O)[O-])ccc5[O-])c4[O-])cc3)cc2)ccc1O.[Cu+2].[Na+].[Na+]`, “active; inactive”; for `ClC(Cl)(Cl)c1ccccc1`, “active; inactive”. `N#CN=C(N)N`: the outcome is “inactive; active”.

Consider `N[C@@H](CC(=O)O)C(=O)O`, for which the outcome is “inactive; active”. For `CCC1(CC)C(=O)N=C(O)NC1=O` the value was “active; inactive”; for `NNc1nc(-c2ccc([N+](=O)[O-])cc2)cs1`, “active”. For `CCCCCCCCCC[N+](C)(C)[O-]` the value was “inactive”; for `C=CC`, “inactive”; for `Cc1cc(C(C)(C)C)c(O)c(C(C)(C)C)c1`, “active”. As to `Cc1cc(OC(=O)N(C)C)n(C(C)C)n1`, the outcome is “inactive; active”. `CN[C@H]1CCc2cc(OC)c(OC)c(OC)c2-c2ccc(OC)c(=O)cc21`: the outcome was inactive. `Clc1ccc(C(c2ccccc2Cl)C(Cl)Cl)cc1` (stereo unspecified): the outcome was inactive.
